Measurements reported in ChEMBL document CHEMBL1129415, “Structure-activity relationship studies on benzofuran analogs of propafenone-type modulators of tumor cell multidrug resistance” (J Med Chem, 1996).
Activity calls are given as the source filed them. The calls are words filed in the database; no cut-off is given here.

How the values were obtained:
[1] = Partition coefficient (logP); assay type: physicochemical; conditions: octanol/water
CCRF-CEM [2] = assay: Effective dose against CCRF-CEM vcr 100 cells by using MTT assay; assay type: functional, Homo sapiens
CCRF-CEM [3] = test system: CCRF-CEM
Description: Effective dose against CCRF-CEM vcr 100 cells by using rhodamine efflux studies.

CCRF-CEM [4] = assay: Compound was tested for effective dose against CCRF-CEM vcr 100 cells by using MTT assay; na=not active; assay type: functional, cell-based; conditions: Homo sapiens
CCRF-CEM [5] = conditions: Homo sapiens
Description: Compound was tested for effective dose against CCRF-CEM vcr 100 cells by using rhodamine efflux studies; na=not active

Row | logP [1] | Structure (SMILES) | ED50 (CCRF-CEM [2]) [nM] | ED50 (CCRF-CEM [3]) [uM l-1] | ED50 (CCRF-CEM [4]) | ED50 (CCRF-CEM [5])
1 | 3.62 | CCN(CC)CC(O)COc1ccccc1C(=O)CCc1ccccc1 (stereo not drawn) | 390 | 1.4 |  | 
2 | 5.26 | Cc1ccccc1N1CCN(CC(O)COc2ccccc2C(=O)CCc2ccccc2)CC1 (stereo not drawn) | 50 | 0.06 |  | 
3 | 4.93 | O=C(CCc1ccccc1)c1ccccc1OCC(O)CN1CCN(c2ccc(F)cc2)CC1 (stereo not drawn) | 150 | 0.16 |  | 
4 | 4.65 | COc1ccc(N2CCN(CC(O)COc3ccccc3C(=O)CCc3ccccc3)CC2)cc1 (stereo not drawn) | 110 | 0.28 |  | 
5 | 3.77 | CCCN(C)CC(O)COc1ccccc1C(=O)CCc1ccccc1 (stereo not drawn) | 270 | 1.36 |  | 
6 | 4.71 | CCCNCCc1oc2ccccc2c1CCc1ccccc1 | 870 | 2.9 |  | 
7 |  | CCCNCC(O)COc1ccccc1C(=O)CCc1ccccc1 (stereo not drawn) [PROPAFENONE] |  | 3.55 |  | 
8 | 4.3 | O=C(CCc1ccccc1)c1ccccc1OCC(O)CNCc1ccccc1 (stereo not drawn) | 190 | 0.41 |  | 
9 | 4.07 | CCCNCC(O)c1oc2ccccc2c1CCc1ccccc1 (stereo not drawn) | 1800 | 13.61 |  | 
10 | 3.67 | O=C(CCc1ccccc1)c1ccccc1OCC(O)CN1CCCCC1 (stereo not drawn) | 290 | 1.65 |  | 
11 | 5.32 | COc1ccccc1N1CCN(CC(O)c2oc3ccccc3c2CCc2ccccc2)CC1 (stereo not drawn) | 210 | 0.46 |  | 
12 | 4.25 | CC(C)N(CC(O)COc1ccccc1C(=O)CCc1ccccc1)C(C)C (stereo not drawn) | 290 | 0.61 |  | 
13 | 5.05 | COc1ccccc1N1CCN(CC(=O)c2oc3ccccc3c2CCc2ccccc2)CC1 | 2020 | 4.96 |  | 
14 | 0.94 | CCC(=O)c1ccccc1OCC(O)CN1CCOCC1 (stereo not drawn) |  |  | inactive | inactive
15 | 3.1 | CCCNCC(O)c1oc2ccccc2c1CC (stereo not drawn) | 4190 | 69.6 |  | 
16 | 2.54 | O=C(CCc1ccccc1)c1ccccc1OCC(O)CN1CCOCC1 (stereo not drawn) | 1490 | 13.56 |  | 
17 | 2.67 | CC(=O)c1ccccc1OCC(O)CN1CCN(c2ccc(F)cc2)CC1 (stereo not drawn) | 890 | 8.61 |  | 
18 | 2.94 | CN(C)CC(O)COc1ccccc1C(=O)CCc1ccccc1 (stereo not drawn) | 820 | 7.12 |  | 
19 | 4.54 | CC(C)NCCc1oc2ccccc2c1CCc1ccccc1 | 1100 | 5.8 |  | 
20 | 3.26 | O=C(CCc1ccccc1)c1ccccc1OCC(O)CN1CCCC1 (stereo not drawn) | 520 | 2.55 |  | 
